Where no end group is shown, it is not given here.
Experiments:
human Mo-DC's = assay: Cytokine production by human Mo-DC's; type: cell-based; conditions: hBD2 100 μg/ml or 10 μg/ml, 24 h, ELISA, n = 3
Procedure: Peripheral blood was drawn from healthy donors and diluted one to one in PBS. The mixture was stacked in a falcon tube on Biocoll separation solution (Biochrome) with a ratio of three parts blood PBS mixture to two parts Biocoll. For a density gradient centrifugation the falcon tubes were centrifuged at 2,000 rpm for 30 min at RT. The PBMC's were removed and washed twice with PBS. 1.5 × 10^6 cells were seeded per well in a tissue culture-treated 6-well plate in RPMI-1640 medium (Merck) supplemented with 10% fetal calf serum (FCS; Sigma-Aldrich), 2 mM L-glutamine (Biochrome), 100 U/ml penicillin/streptomycin (Gibco), 50 μM 2-mercaptoethanol (Fluka), 1 mM sodium pyruvate (Biochrome), and 1x non-essential amino acids (Biochrome) and incubated for 1 h at 37°C and 5% CO2 for monocyte adherence. Then the cells were washed with media and PBS to remove the non-adherent cells and were cultivated for 6 days with media additional supplemented with 50 ng IL-4 and 100 ng GM-CSF (Miltenyi). […]
2 × 10^5 murine BM-DC's or human Mo-DC's were seeded in 96-well round bottom plates. […] 24 h later supernatants were collected and TNF-α [Biolegend (BM-DC's); R&D (Mo-DC's)] was analyzed according to the manufacturer's instructions. IL-10, IL-12, and IL-1β (LEGENDplex Biolegend) was as well-analyzed according to the manufacturer's instructions.

[1] = tested on: human primary PBMC's of ulcerative colitis patients; assay: Stimulation of PBMCs of ulcerative colitis patients with LPS, cytokine release; type: cell-based; conditions: LPS 20 pg/ml; 10 μg/mL hBD2; colitis patients n = 4; LegendPlex
Procedure: Heparinized blood was diluted 1/1 v/v with RPMI (Gibco) and was subjected to Ficoll-Paque Plus (GE healthcare) density centrifugation within 2 h of drawing. Plasma was collected from the top from individual donors and was kept on ice until it was used at 2% in the culture medium (autologous culture medium). Isolated PBMC's were re-suspended in autologous culture medium and seeded in 96-well culture plates with 115.500 cells per well (Figure 1) or 200.000 cells per well (Figure 2) in a total of 200 μl. PBMC's from the same donor were stimulated with 100, 10 or 1 μg/ml of hBD2 either alone or together with 20 pg/ml lipopolysaccharide (LPS) (E. coli, O111:B4, Sigma L4391) or with 0.3 μg/ml Pam3CSK4 (InvivoGen). The supernatants were collected after incubation at 37°C for 24 h, and stored at −80°C until cytokine measurement.
The experiment in Figure 2 was performed with 8 subjects (4 controls and 4 colitis patients) to study the impact of disease status on treatment efficacy. Clinical status of these subjects were subtotal remission (Simponi and Salofalk), remission (Vedolizumab), mild disease (Infliximab, Salofalk, and Prednisolon), and moderate disease (Vedolizumab). PBMCs from these subjects were analyzed for IL-1b, TNF-a, IFN-g, IL-12, and IL-23 expression using a human inflammation cytometric bead array (LegendPlex Biolegends) according to manufacturer's instructions.

murine BM-DC's = assay: Flow cytometry of BM-DCs (p-NF-κB, p-CREB, MHCII, CD86); type: cell-based, mouse; conditions: LPS + hBD2 100 μg/ml, flow cytometry, n = 6
Procedure: BM-DC's were generated using granulocyte-macrophage colony-stimulating factor (GM-CSF) and RPMI-1640 medium (Merck) supplemented with 10% fetal calf serum (FBS; Life Technologies), 2 mM glutamine (Thermo Fisher), 100 U/ml penicillin/streptomycin (Gibco), 50 μM 2-mercaptoethanol (Roth), 1 mM sodium pyruvate (Biochrome), and 1x non-essential amino acids (Biochrome) as previously described ([28]). Shortly, 2 × 10^6 bone marrow cells flushed from the tibias and femurs of C57BL/6 mice were seeded in dishes containing 200 U/ml GM-CSF. After 3 days extra medium containing GM-CSF was added to the cells and on day 6 half of the medium was replaced by fresh […] containing GM-CSF. After 7 or 8 days slightly attached cells were harvested. Female C57BL/6JolaHsd mice were purchased from Janvier (St. Berthevin Cedex, France). Animal experiments were performed in strict accordance with the German regulations of the Society for Laboratory Animal Science (GV-SOLAS) and the European Health Law of the Federation of Laboratory Animal Science Associations (FELASA). The protocol was approved by the Regierungspräsidium Tübingen (Anzeige 09.01.2014).
2 × 10^5 murine BM-DC's were seeded in 96-well round bottom plates and treated as described above. Cells were removed from the plate using Accutase (Sigma-Aldrich) and stained for 20 min at room temperature with Zombie Aqua (Biolegend) to exclude dead cells and extracellular antibodies against CD11c-APC (N418) (Miltenyi), MHCII-FITC (M5/114.15.2) (Miltenyi) and CD86-BV421 (GL-1) (Biolegend). For p-CREB staining cells were fixed and permeabilized with Foxp3 Staining Buffer Set (eBioscience) and stained with primary antibody phosphor-CREB mAb (Ser133; clone 87G3) (Cell Signaling) for 30 min in the dark at room temperature followed by secondary goat anti-rabbit IgG-DyLight™649 (Jackson ImmunoResearch) for 15 min at 4°C. To detect intracellular p-NF-κB BM-DCs were fixed with 2% paraformaldehyde (VWR) in PBS, permeabilized with 90% freezing methanol (Applichem) and stained with the primary antibodies to phosphor-NF-κB p65 (93H1) (Cell Signaling) for 60 min in the dark at room temperature followed by goat anti-rabbit IgG-PE-Cy7 (Santa Cruz Biotechnology) for 15 min at 4°C. PBS with 0,5% bovine serum albumin (Biomol) was used for all incubations and washing steps. At least 50,000 cells were acquired using a Canto-II flow cytometer (BD […]) with DIVA software (BD Biosciences) and were further analyzed using FlowJo 10.5 software (Tree Star).

Substance: human β-defensin 2 (GIGDPVTCLKSGAICHPVFCPRRYKQIGTCGLPGTKCCKKP; not fully specified; ends and bridges not checked) [hBD2, Recombinant human β-defensin 2 expressed in E. coli as his-tagged thioredoxin fusion, cleaved and purified, natural tertiary structure]
- TNF-α production in LPS-challenged human mo-DCs (human Mo-DC's): dose-dependently curbed TNF-α production
- Proinflammatory immune response (IL-1β, TNF-α, INF-γ, IL-23, IL-12p70 release) [1]: successfully attenuated the proinflammatory immune response
- CREB phosphorylation (murine BM-DC's; 60 min): increase in CREB phosphorylation
- NF-κB phosphorylation (murine BM-DC's; 60 min): reduced NF-κB phosphorylation
- Maturation status (MHCII and CD86) (murine BM-DC's): reduced maturation status

Reference: article PMC7006816, “Human β-Defensin 2 Mediated Immune Modulation as Treatment for Experimental Colitis” (Frontiers in Immunology, 2020)
